ChEMBL document CHEMBL1124290, “6- and 8-hydroxy-3,4-dihydro-3-(dipropylamino)-2H-1-benzopyrans. Dopamine agonists with autoreceptor selectivity” (J Med Chem, 1988)

Experiments:
[1] = system: Mus musculus; assay: Dose required for inhibition of locomotor activity in mice (sc)
[2] = system: Mus musculus; assay: Dose required for reversal of reserpine-induced depression in mice (sc)
[3] = system: Rattus norvegicus; assay: Dose (ip) giving half-maximal reversal of the gamma-butyrolactone-induced increase in DOPA formation of rat striatum; assay type: functional
[4] = Ratio of ED50 values for the inhibition of locomotor activity to reversal of reserpine-induced depression; assay type: functional

SMILES | ED50 [1] | ED50 [2] | ED50 [3] | Ratio [4]
CN1CCc2cccc3c2[C@H]1Cc1ccc(O)c(O)c1-3 [APOMORPHINE] | 0.021 mg/kg | 0.096 mg/kg | 0.04 mg/kg | 
CCCN(CCC)C1COc2ccc(O)cc2C1 (stereo unspecified) | 0.17 mg/kg | 13.4 mg/kg | 0.85 mg/kg | 79
CCCN(CCC)C1COc2c(O)cccc2C1 (stereo unspecified) | 0.013 mg/kg | 3.95 mg/kg | 0.05 mg/kg | 304
